The text below walks through data of US5679638A, “Method for treating a tumor with a chemotherapeutic agent” (Biopure Corporation, priority 1993, dated 1997).

Where “and” joins values, the source holds several entries; their conditions need not be identical. Identical values can stand only once.

In one test the test system is FSaIIC fibrosarcoma. Description: FSaIIC fibrosarcoma tumor growth delay. Conditions: for Tumor growth delay, UPHS/Air: UPHS 0.3 ml (12 ml/kg) i.v. immediately before drug; for Tumor growth delay, UPHS/Air / Tumor growth delay, alkylating agent (alone): air breathing; for Increase in tumor growth delay by addition of UPHS: UPHS + drug (air) vs drug alone; for Effect of carbogen breathing on tumor growth delay produced by drug / Tumor growth delay, Carbogen: no UPHS; for Effect of carbogen breathing on tumor growth delay produced by drug: vs drug with air; for Tumor growth delay, Carbogen: drug + carbogen breathing 6 hours; for Tumor growth delay, alkylating agent (alone): drug alone i.p. In kind it is in vivo, mouse (male C3H/FeJ mice). The procedure:
The FsaII fibrosarcoma (FSaIIC), adapted for growth in culture, was employed. See Rice, L. et al., "The Radiosensitivity of a Murine Fibrosarcoma as Measured by Three Cell Survival Assays", Br. J. Cancer 41:240-245 (1980). 2×10^6 FSaIIC cells, prepared from a brei of several stock tumors, were implanted intramuscularly into the legs of 8- to 10-week old male C3H/FeJ mice (The Jackson Laboratory, Bar Harbor, Me.). When the tumors were approximately 100 mm^3 in volume, 0.3 ml (12 ml/kg; 1.32 gm protein/kg) of UPHS was injected via the tail vein. The UPHS solution was obtained from Biopure Corporation, Boston, Mass. and was a polymerized form of a highly purified bovine hemoglobin solution. It contained 11±2 gm/deciliter of bovine hemoglobin. […] It contained sodium (145 mM/L), chloride (140 mM/L) and potassium (4.0 mM/L) in a buffer solution (pH 7.8±0.4). […] DeVenuto, F., "Evaluation of Human and Bovine Modified-Hemoglobin Solution as Oxygen-Carrying Fluid for Blood Volume Replacement", Biomat. Art. Cells, Art. Org. 16:77-82 (1988); and Winslow, R. M., "Optimal Hematologic Variables for Oxygen Transport Including p50, Hemoglobin Cooperativity, Hematocrit, Acid-Base Atatus, and Cardiac Function", Biomat., Art. Cells and Art. Organs 16:149-172 (1988).
CTX and PAM were purchased as pure powders from Sigma Chemical Company, St. Louis, Miss. […] BCNU (Carmustine) was purchased from the Dana-Farber Cancer Institute Pharmacy.
The mice were allowed to breathe air or were placed in a circulating atmosphere of 95% O2 /5% CO2 (carbogen) for six hours and then removed to air. The progress of each tumor was measured three times weekly until it reached a volume of 500 mm^3. Tumor growth delay was calculated as the days taken by each individual tumor to reach 500 mm^3 compared to the untreated controls. […] Days of tumor growth Relay are the mean ±SE for the treatment group compared to the control.
Statistical comparisons were made with Dunn Multiple Comparisons Test.
The procedures and materials of Example I were employed except that Fluosol-DA was substituted for UPHS. Fluosol-DA was obtained from Alpha Therapeutics Corporation and is an emulsion consisting of […] (w/v) of the following perfluorocarbons: 7 parts perfluorodecalin, 3 parts per perfluorotripropyliamine; Pluronic F-68 (2.7%, w/v); yolk phospholipids (0.4% w/v) as emulsifiers; and glycerol (0.8%, w/v) as a cryoprotective agent. The annex solution (electrolyte/bicarbonate solution) furnished the preparation with physiological osmolarity.
The specific procedures employing Fluosol-DA have been described previously. See Teicher, B. A. et al., "Approaches to Defining the Mechanism of Fluosol-DA 20%/Carbogen Enhancement of Melphalan Antitumor Activity", Cancer Res. 47:513-518 (1987); Teicher, B. A. et al., "Differential Enhancement of Melphalan Cytotoxicity in Tumor and Normal t+Tissue by Fluosol-DA and Oxygen Breathing", Int. J. Cancer 36:585-589 (1985); and Teicher, B. A. et al., "Effects of Various Oxygenation Conditions on the Enhancement by Fluosol-DA of Melphalan Antitumor Activity", Cancer Res. 47:5036-5041 (1987).

The test system of test [1] is Lewis lung carcinoma lung metastases. Description: Lung metastases of Lewis lung carcinoma. Format: in vivo, mouse (male C57BL). More on the design: Lung Metastases: unit not given here. The procedure:
The Lewis lung tumor was carried in male C57BL mice (Taconic Laboratories, Germantown, N.Y.). For the experiments, 2×10^6 tumor cells prepared from a brei of several stock tumors were implanted subctaneously into the legs of male mice aged 8-10 weeks. […] Animals bearing Lewis lung tumors were treated daily with intraperitoneal Mino (10 mg/kg), Diflun (15 mg/kg) or Sulin (15 mg/kg) on days 4-18 following tumor implantation. When the tumors had reached a volume of approximately 100 mm^3 (day 7 after tumor cell implantation), cytotoxic therapy was initiated.
Therapy consisted of treatment with an antitumor alkylating agent, an antitumor antimetabolite, a non-steroidal anti-inflammatory drug (NSAID) and/or UPHS. […] CTX therapy consisted of three successive 150 mg/kg CTX doses administered by intraperitoneal injections on days 7, 9 and 11. BCNU therapy consisted of three successive 15 mg/Kg BCNU doses administered by intraperitoneal injections on days 7, 9 and 11. Therapy with the antimetabolite 5-fluorouracil(5-FU) consisted of 4 successive 40 mg/kg 5-FU doses administered by intraperitoneal injections daily on days 7 to 11. The 5-FU was purchased from Sigma Chemical Co., St. Louis, Mo. Fourteen doses of 10 mg/kg of NSAID were administered daily by intraperitoneal injections on days 4 to 18. UPHS was injected into the tail vein in 8 ml/kg doses daily on days 7-11. […]

Where [2] appears, read: PAM 10, CTX 150, CDDP 10, BCNU 15 mg/kg.
The mark [3] stands for this setting: UPHS + carbogen 6 h + drug vs drug alone.

`O=NN(CCCl)C(=O)NCCCl` [BCNU, N,N-bis(2-chloroethyl)-N-nitrosourea]: in the test with FSaIIC fibrosarcoma (setting [2]), the “Tumor growth delay, UPHS/Air” value came out at 3.8 ± 0.5 days; the “Tumor growth delay, Carbogen” value is recorded as 3.3 ± 0.3 days; the “Tumor growth delay, alkylating agent (alone)” value is 2.5 ± 0.3 days and 2.5 days. For the same molecule, the “Increase in tumor growth delay by addition of UPHS” value (from here on “Increase … by addition of UPHS”) in the test on FSaIIC fibrosarcoma is reported as 1.5 fold. Moreover, the “Effect of carbogen breathing on tumor growth delay produced by drug” value (from here on “Effect of carbogen breathing”) in the test on FSaIIC fibrosarcoma (carbogen 6 hours) is “increased the tumor growth delay produced by BCNU to a small degree”. Also, the “Increase in tumor growth delay by combination of UPHS and carbogen” value (shortened to “Increase … of UPHS and carbogen”) with FSaIIC fibrosarcoma (mouse, in vivo) is recorded as 2.3 fold. Moreover, in test [1] (WITH UPHS), the “Lung Metastases” value stood at 9 and the “Lung Metastases (% Large)” value is recorded as 61%. Besides, in test [1] (WITHOUT UPHS), the “Lung Metastases” value was found to be 15.5 and the “Lung Metastases (% Large)” value is 53%.

In the case of `N.N.[Cl][Pt][Cl]` [CDDP, cis-diaminodichloroplatinum(II)], in the test on FSaIIC fibrosarcoma (setting [2]), the “Tumor growth delay, UPHS/Air” value is 9.6 ± 1.1 days; the “Tumor growth delay, Carbogen” value worked out at 7.6 ± 0.3 days; the “Tumor growth delay, alkylating agent (alone)” value is 7.4 ± 0.8 days and 7.4 days. Besides, the “Tumor growth delay, UPHS/Carbogen” value in the test with FSaIIC fibrosarcoma (UPHS 12 ml/kg i.v. + drug + carbogen breathing 6 hours, PAM 10, CTX 150, CDDP 10, BCNU 15 mg/kg) was 14.1 ± 1.6 days and 14.1 days. In the test on FSaIIC fibrosarcoma (setting [3]), the “Increase … of UPHS and carbogen” value was 1.9 fold. Also, the “Increase … by addition of UPHS” value in the test on FSaIIC fibrosarcoma is reported as 1.3 fold. Moreover, in the test on FSaIIC fibrosarcoma (carbogen 6 hours), the “Effect of carbogen breathing” value is “no significant effect on the tumor growth delay”. Also, in test [1] (WITH UPHS), the “Lung Metastases” value is listed as 13 and the “Lung Metastases (% Large)” value was 40%. For the same molecule, in test [1] (WITHOUT UPHS), the “Lung Metastases” value is reported as 13 and the “Lung Metastases (% Large)” value is recorded as 58%.

In the case of `O=P1(N(CCCl)CCCl)NCCCO1` (stereo not shown) [CTX, Cyclophosphamide], the “Tumor growth delay, with Fluosol-DA and carbogen” value in the test on FSaIIC fibrosarcoma (CTX 150 mg/kg + Fluosol-DA, carbogen 6 hours) is listed as “about 12 days”. Besides, in the test on FSaIIC fibrosarcoma (setting [2]), the “Tumor growth delay, UPHS/Air” value is 7.4 days and 7.4 ± 0.7 days; the “Tumor growth delay, Carbogen” value was found to be 5.0 ± 0.5 days. Moreover, the “Increase … of UPHS and carbogen” value with FSaIIC fibrosarcoma (setting [3]) is recorded as 4.6 fold. Moreover, the “Increase … by addition of UPHS” value in the test on FSaIIC fibrosarcoma was 2.1 fold. Besides, in the test on FSaIIC fibrosarcoma (carbogen 6 hours), the “Effect of carbogen breathing” value is recorded as “small increase in the tumor growth delay”. For the same molecule, in test [1] (WITH UPHS), the “Lung Metastases” value stood at 8 and the “Lung Metastases (% Large)” value was determined as 40%. In test [1] (WITHOUT UPHS), the “Lung Metastases” value was 12 and the “Lung Metastases (% Large)” value was 40%.

As to `N[C@@H](Cc1ccc(N(CCCl)CCCl)cc1)C(=O)O` [PAM, Melphalan], the “Tumor growth delay, with Fluosol-DA and air breathing” value in the test on FSaIIC fibrosarcoma (PAM 10 mg/kg + Fluosol-DA, air) is “about 6.5 days”. Besides, the “Increase … of UPHS and carbogen” value with FSaIIC fibrosarcoma (setting [3]) was 3.6 fold. Further, the “Increase … by addition of UPHS” value in the test on FSaIIC fibrosarcoma was found to be 2.2 fold. Also, in the test on FSaIIC fibrosarcoma (carbogen 6 hours), the “Effect of carbogen breathing” value is “small increase in tumor growth delay”. For the same molecule, the “Tumor growth delay, Carbogen” value with FSaIIC fibrosarcoma (setting [2]) was determined as 4.0 ± 0.6 days. Besides, in test [1] (WITH UPHS), the “Lung Metastases” value was found to be 10 and the “Lung Metastases (% Large)” value came to 50%. Moreover, in test [1] (WITHOUT UPHS), the “Lung Metastases” value is given as 13 and the “Lung Metastases (% Large)” value turned out to be 48%.
